Values joined by “and” are separate entries in the source; they are usually repeats but may differ in a detail not shown here. Equal values may be shown once. Read-outs that look alike come from different tables or passages of the source.
Experiments:
[1] = system: total microbial count (APC); format: cell-based
[2] = system: coliforms (ECC); format: cell-based
[3] = system: yeast and mold (YM); format: cell-based; settings: for YM Log10 / YM Log10 Reduction / YM Log10 (CFU/10 g barley grains): 500 ppm PAA
[4] = system: barley; experiment: Germination of treated barley kernels (percentage of living kernels); format: in vivo; settings: 500 ppm PAA
Description: The grains treated with PAA as described in Example 4 were further tested for germination. After the treatment, the PAA solution was decanted and kernels were immediately transferred into Petri dishes and placed between two wet paper towels for germination tests. The treated kernels were not washed with water. The germination continued in a water bath at room temperature for 2 days. Germination was evaluated by the percentage of living kernels in a sample of barley.

[5] = system: Fusarium graminearum 46779; format: cell-based
[6] = system: all microbial populations tested (APC, ECC, YM); experiment: Micro tests on barley grains, all microbial populations tested (APC, ECC, YM); format: cell-based
Description: The treatment was performed at 20° C. as follows: 100 ml of PAA solution at 500 ppm (unadjusted or adjusted to pH=9.0) were applied to 10.0 g of wet barley grains. Solutions with the grains were then shaken for 30 seconds and then the acid solution was neutralized by addition of 0.5 g sodium thiosulfate. The solutions were then used to evaluate effect of PAA treatment on total microbial count (APC), coliforms (ECC), and yeast and mold (YM). Control samples were treated with DI water.
Each sample was diluted serially into Butterfield's phosphate buffer, and the dilutions were plated on Petrifilm™ (3M, Minneapolis, MN) plates specific for different types of microorganisms. The plates were incubated for 48 hours at 35° C. for APC, and for 5 days at 25° C. for YM. For ECC, the incubation was done at 35° C. for 24 hours, then coliforms were counted, and incubation continued for an additional 24 hours at 35° C. Grown colonies on plates were counted and expressed in CFU/10 g barley grains for each treatment. The tests were done in duplicates.

[7] = germinated barley treated before kilning, 500 ppm PAA, pH = 3, 30 s, testing after germination
[8] = germinated barley treated before kilning, 500 ppm PAA, pH = 3, 30 s, testing after kilning
[9] = germinated barley treated before kilning, 500 ppm PAA, pH = 9, 30 s, testing after germination
[10] = germinated barley treated before kilning, 500 ppm PAA, pH = 9, 30 s, testing after kilning
[11] = germinated barley, 500 ppm PAA, pH = 3.1, 30 seconds
[12] = germinated barley, 500 ppm PAA, pH = 9.0, 30 seconds
[13] = steeped barley, 500 ppm PAA, pH = 3.1 (unadjusted), 30 seconds, 20° C.
[14] = steeped barley, 500 ppm PAA, pH = 6.5, 5 s
[15] = steeped barley, 500 ppm PAA, pH = 6.5, 30 s
[16] = steeped barley, 500 ppm PAA, pH = 9, 5 s
[17] = steeped barley, 500 ppm PAA, pH = 9, 30 s
[18] = steeped barley, 500 ppm PAA, pH = 9.0, 30 seconds, 20° C.
[19] = steeped barley, 500 ppm PAA, pH = 9, 10 min
[20] = steeped barley, 500 ppm PAA, pH = 10.0, 5 s
[21] = steeped barley, 500 ppm PAA, pH = 10.0, 30 s
[22] = steeped barley, 500 ppm PAA, unadjusted (pH=3.1), 5 s
[23] = steeped barley, 500 ppm PAA, unadjusted (pH=3.1), 30 s
[24] = test on day 2, treated once, day 2 (after steeping), 500 ppm PAA, 2:1, 10 minutes, 20° C.
[25] = test on day 4, treated once, day 2, 500 ppm PAA, 10 minutes
[26] = test on day 4, treated twice, days 2 and 4, 500 ppm PAA, 10 min each
[27] = germinated barley treated before kilning, 500 ppm PAA, pH = 3, 30 s, testing after kilning, * = complete kill
[28] = germinated barley treated before kilning, 500 ppm PAA, pH = 9, 30 s, testing after kilning, * = complete kill
[29] = germinated barley treated before kilning, pH = 3, 30 s, testing after germination, * = complete kill
[30] = germinated barley treated before kilning, pH = 3, 30 s, testing after kilning, * = complete kill
[31] = germinated barley treated before kilning, pH = 9, 30 s, testing after germination
[32] = germinated barley treated before kilning, pH = 9, 30 s, testing after kilning, * = complete kill
[33] = germinated barley, pH = 3.1, 30 seconds
[34] = germinated barley, pH = 9.0, 30 seconds
[35] = steeped barley, pH = 3.1 (unadjusted), 30 seconds, 20° C.
[36] = steeped barley, pH = 9.0, 30 seconds, 20° C.
[37] = steeped barley, pH = 10.0, 30 s
[38] = steeped barley, unadjusted (pH=3.1), 5 s
[39] = steeped barley, unadjusted (pH=3.1), 30 s

## CC(=O)OO [PAA, peracetic acid]
[1]; [7]
  APC Log10: 7.22 Log10
  APC Log10 Reduction: 1.47 Log10
[1]; [8]
  APC Log10: 3.78 Log10
  APC Log10 Reduction: 2.59 Log10
[1]; [9]
  APC Log10: 7.86 Log10
  APC Log10 Reduction: 0.83 Log10
[1]; [10]
  APC Log10: 5.14 Log10
  APC Log10 Reduction: 1.23 Log10
[1]; [11]
  APC Log10 (CFU/10 g barley grains): 7.23 Log10
  APC Log10 Reduction: 1.98 Log10
[1]; [12]
  APC Log10 (CFU/10 g barley grains): 8.01 Log10
  APC Log10 Reduction: 1.20 Log10
[1]; [13]
  APC Log10 (CFU/10 g barley grains): 6.99 Log10
  APC Log10 Reduction: 2.16 Log10
[1]; [14]
  APC Log10: 7.34 Log10
  APC Log10 Reduction: 1.73 Log10
[1]; [15]
  APC Log10: 6.51 Log10
  APC Log10 Reduction: 2.56 Log10
[1]; [16]
  APC Log10: 7.97 Log10
  APC Log10 Reduction: 0.51 Log10
[1]; [17]
  APC Log10: 6.72 Log10
  APC Log10 Reduction: 1.75 Log10
[1]; [18]
  APC Log10 (CFU/10 g barley grains): 7.34 Log10
  APC Log10 Reduction: 1.81 Log10
[1]; [19]
  APC Log10: 6.25 Log10
  APC Log10 Reduction: 2.23 Log10
[1]; [20]
  APC Log10: 8.28 Log10
  APC Log10 Reduction: 0.79 Log10
[1]; [21]
  APC Log10: 7.35 Log10
  APC Log10 Reduction: 1.72 Log10
[1]; [22]
  APC Log10: 8.19 Log10
  APC Log10 Reduction: 0.29 Log10
[1]; [23]
  APC Log10: 6.54 Log10
  APC Log10 Reduction: 1.93 Log10
[1]; [24]
  APC Log10: 3.84 Log10
  APC Log10 Reduction: 4.30 Log10
[1]; [25]
  APC Log10: 6.72 Log10
  APC Log10 Reduction: 2.5 Log10 and 2.52 Log10
[1]; [26]
  APC Log10: 5.78 Log10
  APC Log10 Reduction: 3.46 Log10
[2]; [7]
  ECC Log10: 6.59 Log10
  ECC Log10 Reduction: 1.67 Log10
[2]; [27]
  ECC Log10: 0.00* Log10
  ECC Log10 Reduction: 3.25* Log10
[2]; [9]
  ECC Log10: 6.68 Log10
  ECC Log10 Reduction: 1.58 Log10
[2]; [28]
  ECC Log10: 0.00* Log10
  ECC Log10 Reduction: 3.25* Log10
[2]; [11]
  ECC Log10 (CFU/10 g barley grains): 6.83 Log10
  ECC Log10 Reduction: 1.16 Log10
[2]; [12]
  ECC Log10 (CFU/10 g barley grains): 7.39 Log10
  ECC Log10 Reduction: 0.60 Log10
[2]; [13]
  ECC Log10 (CFU/10 g barley grains): 5.99 Log10
  ECC Log10 Reduction: 1.91 Log10
[2]; [14]
  ECC Log10: 5.94 Log10
  ECC Log10 Reduction: 1.66 Log10
[2]; [15]
  ECC Log10: 5.26 Log10
  ECC Log10 Reduction: 2.34 Log10
[2]; [16]
  ECC Log10: 5.48 Log10
  ECC Log10 Reduction: 1.73 Log10
[2]; [17]
  ECC Log10: 4.78 Log10
  ECC Log10 Reduction: 2.43 Log10
[2]; [18]
  ECC Log10 (CFU/10 g barley grains): 5.79 Log10
  ECC Log10 Reduction: 2.11 Log10
[2]; [19]
  ECC Log10: 3.63 Log10
  ECC Log10 Reduction: 3.57 Log10
[2]; [20]
  ECC Log10: 6.49 Log10
  ECC Log10 Reduction: 1.11 Log10
[2]; [21]
  ECC Log10: 5.27 Log10
  ECC Log10 Reduction: 2.33 Log10
[2]; [22]
  ECC Log10: 4.60 Log10
  ECC Log10 Reduction: 2.60 Log10
[2]; [23]
  ECC Log10: 2.60 Log10
  ECC Log10 Reduction: 4.60 Log10
[2]; [24]
  ECC Log10: 0.00 Log10
  ECC Log10 Reduction: 4.36 Log10
[2]; [25]
  ECC Log10: 5.41 Log10
  ECC Log10 Reduction: 1.8 Log10 and 1.82 Log10
[2]; [26]
  ECC Log10: 4.95 Log10
  ECC Log10 Reduction: 2.28 Log10
[2]; unadjusted PAA 500 ppm, treated after germination
  kill of ECC microorganisms: complete kill
[3]; [29]
  YM Log10: 0.00* Log10
  YM Log10 Reduction: 4.67* Log10
[3]; [30]
  YM Log10: 0.00* Log10
  YM Log10 Reduction: 2.00* Log10
[3]; [31]
  YM Log10: 2.92 Log10
  YM Log10 Reduction: 1.75 Log10
[3]; [32]
  YM Log10: 0.00* Log10
  YM Log10 Reduction: 2.00* Log10
[3]; [33]
  YM Log10 (CFU/10 g barley grains): 3.60 Log10
  YM Log10 Reduction: 1.86 Log10
[3]; [34]
  YM Log10 (CFU/10 g barley grains): 3.83 Log10
  YM Log10 Reduction: 1.63 Log10
[3]; [35]
  YM Log10 (CFU/10 g barley grains): 3.84 Log10
  YM Log10 Reduction: 1.75 Log10
[3]; steeped barley, pH = 6.5, 5 s
  YM Log10: 1.30 Log10
  YM Log10 Reduction: 2.46 Log10
[3]; steeped barley, pH = 6.5, 30 s
  YM Log10: 0.00 Log10
  YM Log10 Reduction: 3.76 Log10
[3]; steeped barley, pH = 9, 5 s
  YM Log10: 3.86 Log10
  YM Log10 Reduction: 0.62 Log10
[3]; steeped barley, pH = 9, 30 s
  YM Log10: 2.60 Log10
  YM Log10 Reduction: 1.88 Log10
[3]; [36]
  YM Log10 (CFU/10 g barley grains): 4.06 Log10
  YM Log10 Reduction: 1.53 Log10
[3]; steeped barley, pH = 9, 10 min
  YM Log10: 2.80 Log10
  YM Log10 Reduction: 1.79 Log10
[3]; steeped barley, pH = 10.0, 5 s
  YM Log10: 3.52 Log10
  YM Log10 Reduction: 0.24 Log10
[3]; [37]
  YM Log10: 3.16 Log10
  YM Log10 Reduction: 0.60 Log10
[3]; [38]
  YM Log10: 2.95 Log10
  YM Log10 Reduction: 1.53 Log10
[3]; [39]
  YM Log10: 0.00 Log10
  YM Log10 Reduction: 4.48 Log10
[4]; pH 3.1, 30 s, germination 2 days
  Germination: 100%
[4]; pH 3.1, 5 min, germination 2 days
  Germination: 100%
[4]; pH 3.1, 10 min, germination 2 days
  Germination: 94%
[4]; pH 3.1, 30 min, germination 2 days
  Germination: 73%
[4]; pH 9.0, 30 s, germination 2 days
  Germination: 100%
[4]; pH 9.0, 5 min, germination 2 days
  Germination: 100%
[4]; pH 9.0, 10 min, germination 2 days
  Germination: 100%
[4]; pH 9.0, 30 min, germination 2 days
  Germination: 99%
[4]; pH 9.0, longer treatment times (10 min and 30 min)
  Germination: ~100%
[4]; short treatment times (0.5-5 min)
  effect on germination: practically did not affect the germination
[4]; unadjusted (acidic) solution, longer treatment times (10 min and especially 30 min)
  effect on germination: suppressed germination
[5]
  kill of Fusarium: complete kill
[6]; germinated barley, unadjusted PAA 500 ppm, 30 seconds (Example 2)
  reduction of all microorganisms: 1-2 Log10
[6]; steeped barley, 500 ppm PAA at higher pH (pH=9.0), given sufficient time (Example 4)
  reduction: 2-3 Log10
[6]; steeped barley, 500 ppm PAA, 30 s (Example 4)
  reduction of all microorganisms: 2.0-4.5 Log10
[6]; steeped barley, 500 ppm PAA, 30 seconds, pH 3.1 and 9.0 (Example 1)
  reduction in all microbial populations tested: 1.5-2.1 Log10

## Percitric acid [PCA]
[1]
  efficiency against APC: efficient
[2]
  efficiency against ECC: efficient
[3]
  effect on YM: minimal effect

— patent US20240251790A1 (priority 2021, published 2024)
